Experimental data taken from PubChem BioAssay (NCI).
“And” between values parts separate entries of the source, which are not always exact repeats. Equal values may be shown once.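 Interpolation was linear, between the two tested concentrations surrounding the appropriate level; five concentrations were tested over 48 hours in 96-well plates. Here, GI50 denotes the concentration required for 50% inhibition of growth. At the TGI there is no net growth.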

Experiments:
Assay in all cases: inhibition of tumour cell growth, NCI panel, 48 h
HCT-116 colon = test system: HCT-116 colon
OVCAR-5 ovarian = test system: OVCAR-5 ovarian
IGROV1 ovarian = test system: IGROV1 ovarian
CCRF-CEM leukemia = test system: CCRF-CEM leukemia
OVCAR-4 ovarian = test system: OVCAR-4 ovarian
TK-10 renal = test system: TK-10 renal
SF-295 CNS = test system: SF-295 CNS
EKVX NSCLC = test system: EKVX NSCLC
K-562 leukemia = test system: K-562 leukemia
KM12 colon = test system: KM12 colon

SMILES	GI50 (HCT-116 colon)	TGI (HCT-116 colon)	GI50 (OVCAR-5 ovarian)	TGI (OVCAR-5 ovarian)	GI50 (IGROV1 ovarian)	TGI (IGROV1 ovarian)	GI50 (CCRF-CEM leukemia)	TGI (CCRF-CEM leukemia)	GI50 (OVCAR-4 ovarian)	TGI (OVCAR-4 ovarian)	GI50 (TK-10 renal)	TGI (TK-10 renal)	GI50 (SF-295 CNS)	TGI (SF-295 CNS)	GI50 (EKVX NSCLC)	TGI (EKVX NSCLC)	GI50 (K-562 leukemia)	TGI (K-562 leukemia)	GI50 (KM12 colon)	TGI (KM12 colon)
Cc1cc(N2CCCC2)nc(N(CCCNc2ccnc3cc(Cl)ccc23)Cc2ccc3c(c2)OCO3)n1	0.511 µM	3.3 µM	2.46 µM	8.92 µM	1.38 µM	4.33 µM	0.398 µM	4.03 µM	1.86 µM	8.22 µM	2.25 µM	6.81 µM	1.16 µM	2.89 µM	3.16 µM	> 100 µM	0.218 µM	1.86 µM	2.73 µM	11 µM
O=C(O)c1c[nH]cc1C(=O)O	–	> 100 µM	–	> 100 µM	–	> 100 µM	–	> 100 µM	–	> 100 µM	–	> 100 µM	–	> 100 µM	–	> 100 µM	–	> 100 µM	–	> 100 µM
CC(C)[C@@H](COC(C)(C)C)N=CN1CCc2c([nH]c3ccccc23)C1	–	> 100 µM	–	> 100 µM	–	> 100 µM	–	> 100 µM	–	> 100 µM	–	> 100 µM	–	> 100 µM	–	> 100 µM	–	> 100 µM	–	> 100 µM
CC(=O)OC1C2(CC3N4C(=O)C5(CO)SSC4(CC31O)C(=O)N5C)OC(C)C(C)(C)C2=O (centres undefined)	0.0696 µM	0.212 µM	0.0578 µM	0.208 µM	0.117 µM	0.577 µM	–	0.175 µM	< 0.0114 µM	0.0345 µM	1.73 µM	3.27 µM	1.96 µM	3.94 µM	0.124 µM	0.709 µM	< 0.0288 µM	1.91 µM	1.16 µM	2.6 µM
CC(C)OC(=O)c1ccc2[nH]c(O)c(C(=Nc3ccc(N(C)C(=O)CN4CCN(C)CC4)cc3)c3ccccc3)c2c1	0.149 µM	1.28 µM	1.51 µM	3.22 µM	0.0764 µM	1.24 µM	0.371 µM	3.33 µM	1.02 µM	2.48 µM	0.561 µM	2.52 µM	1.19 µM	2.47 µM	1.11 µM	2.49 µM	0.0435 µM	2.06 µM	0.0251 µM	1.56 µM
Cc1ccc2c(c1)ncn2-c1ncnc2c1CC(C)c1ccccc1N2C (centres undefined)	0.0669 µM	13 µM	–	–	0.256 µM	7.68 µM	0.046 µM	10.5 µM	0.624 µM	24.7 µM	11.6 µM	24.3 µM	0.0486 µM	12.2 µM	0.154 µM	18 µM	0.0399 µM	11.2 µM	0.106 µM	14.6 µM
CCCCC[C@H]1C/C=C2/C(=O)C(Cl)=C[C@@H]2C/C=C\CCCC(=O)O[C@@H](CCCCC)C/C=C2/C(=O)C(Cl)=C[C@@H]2C/C=C\CCCC(=O)O1	0.186 µM	0.523 µM	0.689 µM	2.94 µM	0.342 µM	0.958 µM	0.145 µM	1.76 µM	0.461 µM	1.79 µM	0.508 µM	1.6 µM	0.362 µM	0.861 µM	0.543 µM	1.76 µM	0.314 µM	2.29 µM	0.388 µM	0.92 µM
Cn1cc(-c2ccc3c(c2)CCN3C(=O)Cc2cccc(C(F)(F)F)c2)c2c(N)ncnc21	4.64 µM	18.1 µM	12.2 µM	30.2 µM	3.47 µM	30.5 µM	3.94 µM	> 100 µM	2.41 µM	> 100 µM	6.09 µM	39 µM	8.08 µM	25.3 µM	8.7 µM	29 µM	2.22 µM	20.6 µM	0.401 µM	15.5 µM
CCc1c2c(nc3cccc(N)c13)-c1cc3c(c(=O)n1C2)COC(=O)[C@]3(O)CC	–	–	–	0.115 µM	0.137 µM and 0.0298 µM	20.8 µM	< 0.001 µM	–	0.104 µM and 0.0238 µM	> 100 µM	–	0.748 µM	0.00441 µM	–	0.187 µM	> 100 µM	0.00244 µM	> 100 µM	0.159 µM	–
O=C1CCC2(c3ccccc3)Nc3cc(Cl)ccc3N12 (centres undefined)	–	–	–	> 100 µM	–	> 100 µM	–	75.2 µM	–	> 100 µM	–	> 100 µM	–	96 µM	–	> 100 µM	–	> 100 µM	–	> 100 µM
COc1ccc(-c2ccc(/C=N/n3c(COc4ccc(Cl)cc4)n[nH]c3=S)o2)c([N+](=O)[O-])c1	16.8 µM	40.7 µM	24.7 µM	51.4 µM	–	–	17.5 µM	52 µM	2.87 µM	18.2 µM	14.6 µM	37.1 µM	–	–	12.4 µM	54.1 µM	11.6 µM	53.4 µM	8.12 µM	41.3 µM
COc1ccc2cc3n(c2c1)CCc1cc(OC)c(OC)cc1-3	–	–	–	–	–	> 100 µM	–	> 100 µM	–	> 100 µM	–	> 100 µM	–	> 100 µM	–	> 100 µM	–	> 100 µM	–	> 100 µM
O=c1cccccc1NCCCCCCCCCNc1cccccc1=O	–	17.4 µM	–	58 µM	–	> 100 µM	–	> 100 µM	–	> 100 µM	–	–	–	44.3 µM	–	32.7 µM	–	26.9 µM	–	33.3 µM
Cn1cc(-c2ccc(CNc3cc(-c4cnc5cc(OCCCN6CCCC6)ccn45)ncn3)cc2)cn1	1.57 µM	2.98 µM	2.04 µM	4.16 µM	2.05 µM	4.27 µM	2.72 µM	> 100 µM	1.88 µM	3.93 µM	23.7 µM	39.1 µM	–	–	3.01 µM	9.59 µM	2.62 µM	> 100 µM	1.86 µM	3.68 µM
Cc1cccc(C)c1NC(=O)CCCC(=O)C1CCC/C1=N\NC(=O)C(=O)NN (centres undefined)	–	> 100 µM	–	> 100 µM	–	–	–	> 100 µM	–	> 100 µM	–	> 100 µM	–	> 100 µM	–	> 100 µM	–	> 100 µM	–	> 100 µM
Oc1cc(Cl)ccc1Oc1ccc(Cl)cc1Cl	2.55 µM	6.43 µM	3.37 µM	12.1 µM	4.73 µM	17 µM	3.36 µM	10.6 µM	2.79 µM	9.41 µM	3.47 µM	9.59 µM	–	–	3.04 µM	11.9 µM	–	–	3.6 µM	12.7 µM
CC(C)(Br)C(=O)/C=C/c1ccccc1	–	–	–	19.7 µM	–	1.79 µM	–	1.63 µM	–	5.58 µM	–	37.9 µM	–	> 53.6 µM	–	23 µM	–	> 100 µM	–	43.6 µM
CC1CC2(CC[C@@H]1O)OCCO2 (some centres undefined)	–	> 100 µM	–	–	–	> 100 µM	–	> 100 µM	–	> 100 µM	–	> 100 µM	–	> 100 µM	–	> 100 µM	–	> 100 µM	–	> 100 µM
CCOC(=O)/C(C#N)=C1\N[C@H](C(=O)OCC)CO1	–	> 100 µM	–	> 100 µM	–	> 100 µM	–	> 100 µM	–	> 100 µM	–	–	–	> 100 µM	–	> 100 µM	–	> 100 µM	–	> 100 µM
CCOc1ccc(NC(=O)CC2SC(N)=NC2=O)cc1 (centres undefined)	–	> 100 µM	–	> 100 µM	–	> 100 µM	–	> 100 µM	–	> 100 µM	–	> 100 µM	–	> 100 µM	–	> 100 µM	–	–	–	> 100 µM
CS(=O)(=O)Nc1cc(-c2ccc3ncnc(Nc4ccc5c(cnn5Cc5ccc(F)cc5)c4)c3c2)cnc1Cl	2.92 µM	21.7 µM	1.53 µM	8.84 µM	0.314 µM	1.71 µM	0.822 µM	> 100 µM	3.09 µM	44 µM	–	–	2.06 µM	9.61 µM	2.21 µM	18.4 µM	1.4 µM	12.7 µM	2.93 µM	9.72 µM
CCC1CN2CCc3cc(OC)c(OC)cc3C2CC1CC1c2cc(OC)c(OC)cc2CCN1C(=O)CNC(=O)OC(C)(C)C (centres undefined)	–	–	–	77.3 µM	–	74.6 µM	–	15.2 µM	–	7.98 µM	–	85.5 µM	–	34.4 µM	–	32.9 µM	–	14.9 µM	–	11.4 µM
O=C1c2ccccc2C(=O)C1C(c1ccc([N+](=O)[O-])cc1)C1C(=O)c2ccccc2C1=O	–	49.3 µM	–	> 100 µM	–	–	–	> 100 µM	–	> 100 µM	–	> 100 µM	–	> 100 µM	–	> 100 µM	–	> 100 µM	–	> 100 µM
Clc1ccc2nc(Oc3ccccc3)cnc2c1	> 100 µM	> 100 µM	> 100 µM	> 100 µM	–	–	> 100 µM	> 100 µM	> 100 µM	> 100 µM	> 100 µM	> 100 µM	> 100 µM	> 100 µM	> 100 µM	> 100 µM	> 100 µM	> 100 µM	> 100 µM	> 100 µM
O=C(Nc1cc(Cl)c(Cl)cc1Cl)C(=O)C(C(=O)c1ccc(Cl)c(Cl)c1)C1OC(=O)c2ccccc21 (centres undefined)	–	28.8 µM	–	23.6 µM	–	–	–	49.5 µM	–	77.8 µM	–	52 µM	–	36.6 µM	–	58 µM	–	63.9 µM	–	33.6 µM
